The record followed here is ChEMBL document CHEMBL1134402, “Atropisomeric derivatives of 2',6'-disubstituted (R)-11-phenylaporphine: selective serotonin 5-HT(7) receptor antagonists” (J Med Chem, 2001).

One experiment has as its target D(2) dopamine receptor (Homo sapiens, UniProt P14416). In words: Displacement of [3H]raclopride from human dopamine receptor D2A expressed in mouse Ltk cells. The experiment is classed as cell-based.
In experiment [1] the target is 5-hydroxytryptamine receptor 7 (Rattus norvegicus, UniProt P32305). In words: Displacement of [3H]5-HT from rat 5-hydroxytryptamine 7 receptor expressed in CHO cells. The experiment is classed as cell-based.
5-hydroxytryptamine receptor 7, sequence (P32305 whole entry): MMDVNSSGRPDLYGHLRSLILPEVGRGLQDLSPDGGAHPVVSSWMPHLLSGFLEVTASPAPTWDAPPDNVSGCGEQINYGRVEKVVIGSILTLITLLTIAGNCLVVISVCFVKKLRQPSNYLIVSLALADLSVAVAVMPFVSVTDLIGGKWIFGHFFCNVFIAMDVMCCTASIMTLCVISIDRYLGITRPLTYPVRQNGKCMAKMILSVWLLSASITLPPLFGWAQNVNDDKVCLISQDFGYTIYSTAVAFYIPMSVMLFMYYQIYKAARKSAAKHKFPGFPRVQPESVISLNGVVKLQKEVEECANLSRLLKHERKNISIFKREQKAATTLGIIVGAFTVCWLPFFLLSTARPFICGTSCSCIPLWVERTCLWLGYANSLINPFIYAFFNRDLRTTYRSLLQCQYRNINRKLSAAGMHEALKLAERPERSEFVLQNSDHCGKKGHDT
The target of experiment [2] is T1, 5-hydroxytryptamine receptor 1A (Homo sapiens, UniProt P08908).
T1 sequence (P08908 whole entry): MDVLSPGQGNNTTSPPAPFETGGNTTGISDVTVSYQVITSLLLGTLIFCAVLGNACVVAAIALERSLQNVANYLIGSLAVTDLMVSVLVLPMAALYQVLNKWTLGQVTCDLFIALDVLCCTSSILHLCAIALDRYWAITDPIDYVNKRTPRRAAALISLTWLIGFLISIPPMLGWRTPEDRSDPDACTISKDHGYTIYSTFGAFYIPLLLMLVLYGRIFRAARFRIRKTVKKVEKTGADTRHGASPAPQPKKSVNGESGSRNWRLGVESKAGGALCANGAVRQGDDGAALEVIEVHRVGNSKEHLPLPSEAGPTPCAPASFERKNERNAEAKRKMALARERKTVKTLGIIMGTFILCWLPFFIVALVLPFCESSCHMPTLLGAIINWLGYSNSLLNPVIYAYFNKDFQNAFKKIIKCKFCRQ
In words: Displacement of [3H]8-OH-DPAT from human 5-hydroxytryptamine 1A receptor expressed in CHO cells. In kind it is cell-based.

The target in experiment [3] is 5-hydroxytryptamine receptor 7 (Rattus norvegicus) (UniProt P32305). The note with it: CHO; 100 nM.
5-hydroxytryptamine receptor 7 (Rattus norvegicus), sequence (P32305 whole entry): as the sequence (P32305 whole entry) above
Experiment [4] has the same target. The note with it: CHO; 10000 nM.
Experiment [5] has the same target. The note with it: CHO; 1 nM.
The target is the same in experiment [6]. As to the kind of experiment: Percent inhibition of 5-HT7-induced stimulation of cAMP production in CHO cells expressing rat 5-HT receptors at a concentration of 100 nM. The experiment is classed as cell-based.
For experiment [7] the target is unchanged. As to the kind of experiment: Percent inhibition of 5-HT7-induced stimulation of cAMP production in CHO cells expressing rat 5-HT receptors at a concentration of 10000 nM. In kind it is cell-based.
Experiment [8] has the same target. In words: Percent inhibition of 5-HT7-induced stimulation of cAMP production in CHO cells expressing rat 5-HT receptors at a concentration of 1 nM. In kind it is cell-based.
Experiment [9] has the same target. As to the kind of experiment: Percent inhibition of 5-HT7-induced stimulation of cAMP production in CHO cells expressing rat 5-HT receptors by 10000 nM 5-HT. In kind it is cell-based.
The target is the same in experiment [10]. As to the kind of experiment: Percent inhibition of 5-HT7-induced stimulation of cAMP production in CHO cells expressing rat 5-HT receptors by 100 nM 5-HT. In kind it is cell-based.
The target is the same in experiment [11]. In words: Percent inhibition of 5-HT7-induced stimulation of cAMP production in CHO cells expressing rat 5-HT receptors by 1 nM 5-HT. In kind it is cell-based.

D(2) dopamine receptor, sequence (P14416 whole entry): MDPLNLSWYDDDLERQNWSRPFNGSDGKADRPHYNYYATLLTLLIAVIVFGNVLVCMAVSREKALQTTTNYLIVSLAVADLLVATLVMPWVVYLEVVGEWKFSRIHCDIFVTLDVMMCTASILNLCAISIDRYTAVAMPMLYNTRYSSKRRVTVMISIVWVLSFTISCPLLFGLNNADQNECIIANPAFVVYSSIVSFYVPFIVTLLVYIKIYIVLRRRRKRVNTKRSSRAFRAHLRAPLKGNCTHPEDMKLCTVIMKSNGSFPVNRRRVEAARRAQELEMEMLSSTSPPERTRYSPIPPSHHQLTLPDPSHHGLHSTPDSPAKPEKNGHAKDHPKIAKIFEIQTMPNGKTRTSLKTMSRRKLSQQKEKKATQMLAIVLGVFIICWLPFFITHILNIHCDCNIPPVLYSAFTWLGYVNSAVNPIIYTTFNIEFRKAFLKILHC

For the molecule `CN1CCc2cccc3c2[C@H]1Cc1cccc(-c2c(OS(=O)(=O)C(F)(F)F)cccc2OS(=O)(=O)C(F)(F)F)c1-3`, the Ki was 2260 nM at D(2) dopamine receptor, 708 nM in experiment [1] and more than 10000 nM in [2].
Turning to `Cc1cccc(O)c1-c1cccc2c1-c1cccc3c1[C@@H](C2)N(C)CC3` (stereo in doubt; form 1) [listing 1 of 2 here], the Ki at D(2) dopamine receptor amounted to 2500 nM; in experiment [1] it was 23 nM; in [2] it was 48.8 nM.
Regarding `Cc1cccc(S(=O)(=O)N(C)[C@H](C)CCN2CCC(C)CC2)c1` [SB-258719], the Ki was 31.6 nM in experiment [1] and more than 7940 nM in [2].
Consider `CN1CCc2cccc3c2[C@H]1Cc1cccc(-c2c(O)cccc2O)c1-3`, for which the Ki at D(2) dopamine receptor was more than 1000 nM; in experiment [1], 36.2 nM; in [2], 139 nM.
For the molecule `Cc1cccc(C#N)c1-c1cccc2c1-c1cccc3c1[C@@H](C2)N(C)CC3` (stereo in doubt; form 1) [listing 1 of 2 here], the inhibition stood at 42% in experiment [3], 100% in experiment [4] and 21% in [5].
For `Cc1cccc(O)c1-c1cccc2c1-c1cccc3c1[C@@H](C2)N(C)CC3` (stereo in doubt; form 2) [listing 1 of 2 here], the results for the Ki (at D(2) dopamine receptor; in [1]; in experiment [2]) were 3380 nM, 43.1 nM and 319 nM, respectively.
Regarding `Cc1cccc(C#N)c1-c1cccc2c1-c1cccc3c1[C@@H](C2)N(C)CC3` (stereo in doubt; form 1) [listing 2 of 2 here], the Ki at D(2) dopamine receptor stood at 2470 nM; in experiment [1], 20.8 nM; in experiment [2], 778 nM.
For the molecule `COc1cccc(OC)c1-c1cccc2c1-c1cccc3c1[C@@H](C2)N(C)CC3`, the Ki was found to be 2030 nM on D(2) dopamine receptor, 13 nM in [1] and 554 nM in experiment [2].
On to `CN1CCc2cccc3c2[C@H]1Cc1cccc(-c2ccccc2)c1-3`, for which the inhibition in experiment [6] was 30%; in [7], 100%; in [8], 23%. Moreover, the Ki was found to be 9.78 nM in experiment [1] and 1.8 nM in [2].
In the case of `Cc1cccc(C#N)c1-c1cccc2c1-c1cccc3c1[C@@H](C2)N(C)CC3` (stereo in doubt; form 2), the Ki at D(2) dopamine receptor was 498 nM; in experiment [1], 3.79 nM; in [2], 142 nM.
For `Cc1cccc(O)c1-c1cccc2c1-c1cccc3c1[C@@H](C2)N(C)CC3` (stereo in doubt; form 1) [listing 2 of 2 here], the figures for the inhibition in experiment [9], in experiment [10] and in [11] were 100%, 72% and 11%, respectively.
For the molecule `Cc1cccc(O)c1-c1cccc2c1-c1cccc3c1[C@@H](C2)N(C)CC3` (stereo in doubt; form 2) [listing 2 of 2 here], the inhibition was determined as 43% in experiment [6], 100% in experiment [7] and 21% in [8].
Turning to `O=C1Nc2cccc3c2[C@]1(CCCCN1CC=C(c2ccccc2)CC1)CCC3`, the Ki at D(2) dopamine receptor is 105 nM; in experiment [1], 3.31 nM; in experiment [2], 170 nM.
